Kd data for eleven molecules are collected here from patent US20250064941A1, “SIGLEC LIGANDS, CONJUGATES, AND METHODS OF USE THEREOF” (Osprey Biopharmaceuticals, Inc., priority 2023, published 2025).

The target of experiment [1] is T1, mouse Siglec-2-Fc-Avi (CD22) (Mus musculus, UniProt P35329).
T1 construct: made in house
T1 sequence (P35329 22-708 limits assumed): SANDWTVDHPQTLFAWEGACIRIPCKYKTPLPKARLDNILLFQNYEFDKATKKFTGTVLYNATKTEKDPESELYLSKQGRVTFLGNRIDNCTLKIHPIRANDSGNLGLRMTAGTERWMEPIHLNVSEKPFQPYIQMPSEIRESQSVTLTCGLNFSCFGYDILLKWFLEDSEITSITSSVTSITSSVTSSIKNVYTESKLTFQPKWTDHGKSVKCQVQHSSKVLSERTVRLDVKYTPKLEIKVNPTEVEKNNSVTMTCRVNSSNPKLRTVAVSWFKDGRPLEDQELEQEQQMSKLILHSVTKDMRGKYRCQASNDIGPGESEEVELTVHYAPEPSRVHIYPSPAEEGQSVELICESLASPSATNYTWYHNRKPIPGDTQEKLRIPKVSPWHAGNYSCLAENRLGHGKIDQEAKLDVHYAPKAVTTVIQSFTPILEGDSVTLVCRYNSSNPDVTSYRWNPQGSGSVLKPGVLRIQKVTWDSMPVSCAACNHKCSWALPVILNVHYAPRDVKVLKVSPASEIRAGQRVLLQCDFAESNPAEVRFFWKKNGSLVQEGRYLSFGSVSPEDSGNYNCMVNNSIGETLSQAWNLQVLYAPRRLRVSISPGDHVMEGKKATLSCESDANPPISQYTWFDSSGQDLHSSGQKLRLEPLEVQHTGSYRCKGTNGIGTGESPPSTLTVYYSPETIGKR
The experiment in a line: SPR binding affinity to mouse CD22. Conditions: steady-state analysis. Put shortly: (§1)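 Using a Biacore 8K, compounds were tested against biotinylated CD22 captured after sialidase treatment. The running buffer held 1% DMSO, corrected with a 0.5–2% DMSO series. Affinity was derived by steady-state analysis.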
In general terms: SPR reads the build-up and loss of mass on a sensor chip optically.

Experiment [2] has as its target T2, human Siglec-2/CD22 protein (Homo sapiens, UniProt P20273).
T2 construct: purchased Acro Biosystems SI2-H82E3
T2 sequence (P20273 20-847): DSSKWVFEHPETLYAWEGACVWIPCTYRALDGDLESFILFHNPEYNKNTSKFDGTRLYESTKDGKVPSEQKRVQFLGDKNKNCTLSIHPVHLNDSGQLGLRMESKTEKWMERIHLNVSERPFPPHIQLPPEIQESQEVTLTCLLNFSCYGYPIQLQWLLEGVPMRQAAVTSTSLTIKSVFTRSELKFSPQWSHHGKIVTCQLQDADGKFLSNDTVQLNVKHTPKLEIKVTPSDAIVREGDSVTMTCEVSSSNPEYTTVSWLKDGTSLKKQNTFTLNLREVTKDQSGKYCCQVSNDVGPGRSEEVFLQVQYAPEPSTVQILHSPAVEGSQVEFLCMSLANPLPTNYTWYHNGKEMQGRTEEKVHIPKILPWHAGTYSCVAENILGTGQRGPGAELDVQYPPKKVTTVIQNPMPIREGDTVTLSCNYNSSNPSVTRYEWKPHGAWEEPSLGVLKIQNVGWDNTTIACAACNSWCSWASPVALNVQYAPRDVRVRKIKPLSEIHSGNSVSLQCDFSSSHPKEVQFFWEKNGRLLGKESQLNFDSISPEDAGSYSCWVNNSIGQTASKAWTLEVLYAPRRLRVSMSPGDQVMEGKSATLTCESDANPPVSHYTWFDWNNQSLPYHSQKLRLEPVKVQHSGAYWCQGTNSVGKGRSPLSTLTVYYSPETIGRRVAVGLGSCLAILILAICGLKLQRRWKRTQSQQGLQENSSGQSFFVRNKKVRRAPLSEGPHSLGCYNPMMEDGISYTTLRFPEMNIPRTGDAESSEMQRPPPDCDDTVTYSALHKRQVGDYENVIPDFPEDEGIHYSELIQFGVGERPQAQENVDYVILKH
Briefly: SPR binding affinity to human CD22. As to conditions: steady-state analysis. In short, it runs like this: as §1

For experiment [3], the target named is cynomolgus Siglec-2/CD22 (Macaca fascicularis, UniProt A0A2K5WCZ6). The experiment in a line: biochemical. It counts as binding. As to conditions: SPR, steady-state analysis; read-out: Affinity cyno CD22. In short, it runs like this: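 Compound binding measured by steady-state SPR analysis, 120 s dissociation, in HEPES-NaCl-Tween buffer pH 7.5 containing 1% DMSO, DMSO solvent-corrected. Surface: cyno CD22, sialic acids first stripped by SialoExo for 4 h at 37° C., then amine-coupled onto CM5.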
Chain of cynomolgus Siglec-2/CD22 (A0A2K5WCZ6 entry or part of it): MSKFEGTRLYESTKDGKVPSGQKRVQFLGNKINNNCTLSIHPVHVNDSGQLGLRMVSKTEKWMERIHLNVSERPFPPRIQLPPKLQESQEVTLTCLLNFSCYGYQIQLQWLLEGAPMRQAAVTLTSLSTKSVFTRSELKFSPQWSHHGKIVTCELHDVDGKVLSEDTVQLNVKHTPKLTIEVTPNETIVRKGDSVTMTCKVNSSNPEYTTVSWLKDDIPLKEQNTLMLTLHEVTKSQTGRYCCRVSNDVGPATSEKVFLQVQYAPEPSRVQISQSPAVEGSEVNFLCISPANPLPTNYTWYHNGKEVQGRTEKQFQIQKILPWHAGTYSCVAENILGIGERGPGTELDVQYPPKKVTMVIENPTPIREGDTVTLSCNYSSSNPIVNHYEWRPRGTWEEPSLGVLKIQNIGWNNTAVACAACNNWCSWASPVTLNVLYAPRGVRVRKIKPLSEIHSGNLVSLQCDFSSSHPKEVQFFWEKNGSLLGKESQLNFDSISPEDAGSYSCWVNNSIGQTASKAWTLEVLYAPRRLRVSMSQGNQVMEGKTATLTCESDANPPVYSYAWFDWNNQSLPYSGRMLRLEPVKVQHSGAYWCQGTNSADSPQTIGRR

Some results are limits rather than exact numbers.

As to `C#CCOCCOCCO[C@]1(C(=O)O)C[C@H](O)[C@@H](NC(=O)CO)[C@H]([C@H](O)[C@H](O)CNC(=O)Cc2ccc(-c3ccccc3)c(O)c2)O1` [Compound 66, (2R,4S,5R,6R)-6-((1R,2R)-1,2-dihydroxy-3-(2-(2-hydroxy-[1,1′-biphenyl]-4-yl)acetamido)propyl)-4-hydroxy-5-(2-hydroxyacetamido)-2-(2-(2-(prop-2-yn-1-yloxy)ethoxy)ethoxy)tetrahydro-2H-pyran-2-carboxylic acid], the Kd is above 10 µM in experiment [1], 1 to 10 µM in experiment [2] and above 10 µM in experiment [3].
`C#CCOCCOCCO[C@]1(C(=O)O)C[C@H](O)[C@@H](NC(=O)CO)[C@H]([C@H](O)[C@H](O)CNC(=O)Cc2ccc(-c3ccccc3)cc2O)O1` [Compound 67, (2R,4S,5R,6R)-6-((1R,2R)-1,2-dihydroxy-3-(2-(3-hydroxy-[1,1′-biphenyl]-4-yl)acetamido)propyl)-4-hydroxy-5-(2-hydroxyacetamido)-2-(2-(2-(prop-2-yn-1-yloxy)ethoxy)ethoxy)tetrahydro-2H-pyran-2-carboxylic acid]: the Kd in experiment [1], in experiment [2] and in experiment [3] was 1 to 10 µM throughout.
`C#CCOCCOCCO[C@]1(C(=O)O)C[C@H](O)[C@@H](NC(=O)CO)[C@H]([C@H](O)[C@H](O)CNC(=O)Cc2ccc(-c3ccccc3O)cc2)O1` [Compound 68, (2R,4S,5R,6R)-6-((1R,2R)-1,2-dihydroxy-3-(2-(2′-hydroxy-[1,1′-biphenyl]-4-yl)acetamido)propyl)-4-hydroxy-5-(2-hydroxyacetamido)-2-(2-(2-(prop-2-yn-1-yloxy)ethoxy)ethoxy)tetrahydro-2H-pyran-2-carboxylic acid]: the Kd in experiment [1] is 1 to 10 µM; in experiment [2], below 1 µM; in experiment [3], 1 to 10 µM.
As to `C#CCOCCOCCO[C@]1(C(=O)O)C[C@H](O)[C@@H](NC(=O)CS)[C@H]([C@H](O)[C@H](O)CNC(=O)Cc2ccc(-c3ccc(O)cc3)cc2)O1` [Compound 69, (2R,4S,5R,6R)-6-((1R,2R)-1,2-dihydroxy-3-(2-(4′-hydroxy-[1,1′-biphenyl]-4-yl)acetamido)propyl)-4-hydroxy-5-(2-mercaptoacetamido)-2-(2-(2-(prop-2-yn-1-yloxy)ethoxy)ethoxy)tetrahydro-2H-pyran-2-carboxylic acid], the Kd in experiment [1] is above 10 µM; in experiment [2], 1 to 10 µM; in experiment [3] it was above 10 µM.
As to `C#CCOCCOCCO[C@]1(C(=O)O)C[C@H](O)[C@@H](NC(=O)NC)[C@H]([C@H](O)[C@H](O)CNC(=O)Cc2ccc(-c3ccc(O)cc3)cc2)O1` [Compound 70, (2R,4S,5R,6R)-6-((1R,2R)-1,2-dihydroxy-3-(2-(4′-hydroxy-[1,1′-biphenyl]-4-yl)acetamido)propyl)-4-hydroxy-5-(3-methylureido)-2-(2-(2-(prop-2-yn-1-yloxy)ethoxy)ethoxy)tetrahydro-2H-pyran-2-carboxylic acid], the Kd was 1 to 10 µM in experiment [1], below 1 µM in experiment [2] and 1 to 10 µM in experiment [3].
Turning to `C#CCOCCOCCO[C@]1(C(=O)O)C[C@H](O)[C@@H](NC(=O)C(C)(C)O)[C@H]([C@H](O)[C@H](O)CNC(=O)Cc2ccc(-c3ccc(O)cc3)cc2)O1` [Compound 71, (2R,4S,5R,6R)-6-((1R,2R)-1,2-dihydroxy-3-(2-(4′-hydroxy-[1,1′-biphenyl]-4-yl)acetamido)propyl)-4-hydroxy-5-(2-hydroxy-2-methylpropanamido)-2-(2-(2-(prop-2-yn-1-yloxy)ethoxy)ethoxy)tetrahydro-2H-pyran-2-carboxylic acid], the Kd is above 10 µM in experiment [1], 1 to 10 µM in experiment [2] and 1 to 10 µM in experiment [3].
With `C#CCCOc1ccc(CO[C@]2(C(=O)O)C[C@H](O)[C@@H](NC(=O)CO)[C@H]([C@H](O)[C@H](O)CNC(=O)Cc3ccc(-c4ccc(O)cc4)cc3)O2)cc1O` [Compound 73, (2R,4S,5R,6R)-2-((4-(but-3-yn-1-yloxy)-3-hydroxybenzyl)oxy)-6-((1R,2R)-1,2-dihydroxy-3-(2-(4′-hydroxy-[1,1′-biphenyl]-4-yl)acetamido)propyl)-4-hydroxy-5-(2-hydroxyacetamido)tetrahydro-2H-pyran-2-carboxylic acid], the Kd in experiment [1], in experiment [2] and in experiment [3] was below 1 µM throughout.
Take `C#CCOCCOCCO[C@]1(C(=O)O)C[C@H](O)[C@@H](NC(=O)CO)[C@H]([C@H](O)[C@H](O)CNC(=O)Cc2ccc(-c3ccc(=O)[nH]c3)cc2)O1` [Compound 74, (2R,4S,5R,6R)-6-((1R,2R)-1,2-dihydroxy-3-(2-(4-(6-oxo-1,6-dihydropyridin-3-yl)phenyl)acetamido)propyl)-4-hydroxy-5-(2-hydroxyacetamido)-2-(2-(2-(prop-2-yn-1-yloxy)ethoxy)ethoxy)tetrahydro-2H-pyran-2-carboxylic acid]: the Kd in experiment [1], in experiment [2] and in experiment [3] was 1 to 10 µM each time.
Regarding `C#CCOCCOCCO[C@]1(C(=O)O)C[C@H](O)[C@@H](NC(=O)CO)[C@H]([C@H](O)[C@H](O)CNC(=O)Cc2ccc(-c3cc[nH]c(=O)c3)cc2)O1` [Compound 75, (2R,4S,5R,6R)-6-((1R,2R)-1,2-dihydroxy-3-(2-(4-(2-oxo-1,2-dihydropyridin-4-yl)phenyl)acetamido)propyl)-4-hydroxy-5-(2-hydroxyacetamido)-2-(2-(2-(prop-2-yn-1-yloxy)ethoxy)ethoxy)tetrahydro-2H-pyran-2-carboxylic acid], the Kd in experiment [1], in experiment [2] and in experiment [3] was above 10 µM each time.
Consider `C#CCOCCOCCO[C@]1(C(=O)O)C[C@H](O)[C@@H](NC(=O)C(F)F)[C@H]([C@H](O)[C@H](O)CNC(=O)Cc2ccc(-c3ccc(O)cc3)cc2)O1` [Compound 76, (2R,4S,5R,6R)-5-(2,2-difluoroacetamido)-6-((1R,2R)-1,2-dihydroxy-3-(2-(4′-hydroxy-[1,1′-biphenyl]-4-yl)acetamido)propyl)-4-hydroxy-2-(2-(2-(prop-2-yn-1-yloxy)ethoxy)ethoxy)tetrahydro-2H-pyran-2-carboxylic acid], for which the Kd was 1 to 10 µM in experiment [1], below 1 µM in experiment [2] and 1 to 10 µM in experiment [3].
As to `C#CCCOc1ccc(CO[C@]2(C(=O)O)C[C@H](O)[C@@H](NC(=O)CO)[C@H]([C@H](O)[C@H](O)CNC(=O)Cc3ccc(-c4ccc(O)cc4)cc3)O2)cc1` [Compound 77, (2R,4S,5R,6R)-2-((4-(but-3-yn-1-yloxy)benzyl)oxy)-6-((1R,2R)-1,2-dihydroxy-3-(2-(4′-hydroxy-[1,1′-biphenyl]-4-yl)acetamido)propyl)-4-hydroxy-5-(2-hydroxyacetamido)tetrahydro-2H-pyran-2-carboxylic acid], the Kd in experiment [1], in experiment [2] and in experiment [3] was below 1 µM each time.
